Laboratory results: patent publication US12434040B2, “Applicator for a microneedle array patch delivery system” (VAXESS TECHNOLOGIES, INC., priority 2023, dated 2025)

Legend:
[1] = rat, in vivo, 220 ug
Method: (§1) The first study was a pilot study evaluating the impact of array size and dose per needle on the PK profile. Approximately 324 μg of GLP-1 was formulated in Form 1 and delivered with a 60 vs a 90-microneedle array (FIG. 25A). […] The second study was a pilot study evaluating˜5 μg per needle formulated in either Form 1 or Form 2 each delivered with a 61-microneedle array.
(§2) A follow up PK study, with more extensive sampling, particularly in the first 48 hours, was carried out next.
(§3) A dose matched sample formulated in Tris buffer delivered by the subcutaneous route was included as a comparator. MAP dose loading and delivery was confirmed by RP-HPLC (FIG. 26A, top panels). […] The inset in FIG. 26A plots the total area under the curve (AUC) which is a measure of the total exposure to drug product for each animal, for each treatment group and serves as an estimate of bioavailability.
(§4) Male Sprague-Dawley rats (n≥5) of approximately 350-450 g and male Göttingen mini-pigs of 25-30 kg (n≥3) are used in pharmacokinetic studies. […] Individual animal plasma concentration-time values are used to calculate plasma concentration-time data for each delivery route and analyzed by noncompartmental pharmacokinetics using standard PK software.

[2] = Rat PK studies (MAP vs subcutaneous), with body weights and application site observations; details: rat follow up study; target dose 220 μg
Method: as §1, §2, §3, §4

AUC (bioavailability) [1]: some variation in the AUC
Substance: semaglutide [SQ delivered GLP-1]
weight loss by Day 4 [2]: 10%
